Measurements: US9120774B2 (University of Kansas, priority 2009, dated 2015)

Key:
[1] = tested on: bovine microvessel endothelial cells (BMECs); test: Transport across BMEC monolayers in vitro; type: in vitro ADME
Method: In this example, BMECs were grown on 0.4 μm polycarbonate membranes in a petri dish coated with rat tail collagen and fibronectin. […] Briefly, each chamber was filled with 3 mL of PBSA and the donor chamber included KU-1/A4 (10 μM). A temperature of 37° C. was maintained with an external circulating water bath and chamber contents were stirred with Teflon coated magnetic stir bars driven by an external console. At various time points (5, 15, 30, 45, and 90 minutes), 100 μL aliquots were removed from the receiver side and replaced with 100 μL of blank PBSA warmed to 37° C. Samples of the donor solution were also taken for analysis. All samples were analyzed for concentration by RP-HPLC analysis using a Shimadzu dual pump HPLC system equipped with an Alltech (C18, 4.6 mm×150 mm) column. The solvent system consisted of H2O (solvent A) and methanol (solvent B). Analytical samples were eluted with 20% solvent B over 10 minutes at a flow rate of 0.90 mL/min and UV detection at 208 nm. […] The integrity of the cell monolayer was tested post experiment by monitoring the permeability of [^14C]-sucrose, a low permeability marker. Radioactive samples were analyzed by liquid scintillation counting.

[2] = tested on: androgen receptor in LAPC-4 prostate cancer cells; test: Western blot of androgen receptor in LAPC-4 cells; type: cell-based; details: LAPC-4 cells (wild type androgen receptor), 24 hours
Method: (§1) FIG. 3 (top panel) is a western blot analysis of prostate cancer LNCaP cells treated with KU-1/A4. The bottom panel is a western blot analysis of prostate cancer LAPC-4 cells incubated with KU-1/A4. Actin was used as a control in both assays. […] Western blot analysis of the effects of KU-1/A4 on Hsp90 client proteins in prostate cancer LNCaP cells. Cells were treated with varying concentrations of KU-1/A4 for 24 hours and probed for the androgen receptor (“AR”), protein kinase […] (“AKT”), Hsp90, and actin.
(§2) The steroid hormone receptors are also dependent upon the Hsp90 protein folding machinery for activation and hormone binding. To determine whether KU-1/A4 had similar effects on the androgen receptor, KU-1/A4 was tested in both a mutated androgen receptor-dependent prostate cancer cell line (LNCaP) and a wild type androgen receptor prostate cancer cell line (LAPC-4). More specifically, the prostate cancer cells were grown in RPMI with 10% fetal calf serum in a standard fashion. Once the cells had reached near confluence, they were treated with vehicle (DMSO) or varying concentrations of KU-1/A4 ranging from 10 nm to 100 μM for 24 hours. Cells were harvested and cell lysates prepared. […] More specifically, Western Blot analysis protein concentrations in serum samples were determined by the Pierce BCA protein assay kit according to the manufacturer's protocol. […]

[3] = tested on: SkBr3 (Her2 overexpressing breast cancer cells); test: Anti-proliferation activity against SkBr3 cells (MTS/PMS); type: cell-based; details: up to 100 μM
Outline: (§3)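 Cells seeded at 2000/well, attached overnight, then exposed to compound at varying concentrations (1% DMSO final) for 72 hours at 37° C. Viable cells read by MTS/PMS, normalised to 1% DMSO as 100% proliferation. IC50 from separate triplicate experiments.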

[4] = molecular target: P-glycoprotein (P-gp) (Bos taurus, UniProt A0A3Q1MB23); test: Rhodamine 123 uptake assay in BMECs
P-glycoprotein (P-gp), sequence (A0A3Q1MB23 1-1267): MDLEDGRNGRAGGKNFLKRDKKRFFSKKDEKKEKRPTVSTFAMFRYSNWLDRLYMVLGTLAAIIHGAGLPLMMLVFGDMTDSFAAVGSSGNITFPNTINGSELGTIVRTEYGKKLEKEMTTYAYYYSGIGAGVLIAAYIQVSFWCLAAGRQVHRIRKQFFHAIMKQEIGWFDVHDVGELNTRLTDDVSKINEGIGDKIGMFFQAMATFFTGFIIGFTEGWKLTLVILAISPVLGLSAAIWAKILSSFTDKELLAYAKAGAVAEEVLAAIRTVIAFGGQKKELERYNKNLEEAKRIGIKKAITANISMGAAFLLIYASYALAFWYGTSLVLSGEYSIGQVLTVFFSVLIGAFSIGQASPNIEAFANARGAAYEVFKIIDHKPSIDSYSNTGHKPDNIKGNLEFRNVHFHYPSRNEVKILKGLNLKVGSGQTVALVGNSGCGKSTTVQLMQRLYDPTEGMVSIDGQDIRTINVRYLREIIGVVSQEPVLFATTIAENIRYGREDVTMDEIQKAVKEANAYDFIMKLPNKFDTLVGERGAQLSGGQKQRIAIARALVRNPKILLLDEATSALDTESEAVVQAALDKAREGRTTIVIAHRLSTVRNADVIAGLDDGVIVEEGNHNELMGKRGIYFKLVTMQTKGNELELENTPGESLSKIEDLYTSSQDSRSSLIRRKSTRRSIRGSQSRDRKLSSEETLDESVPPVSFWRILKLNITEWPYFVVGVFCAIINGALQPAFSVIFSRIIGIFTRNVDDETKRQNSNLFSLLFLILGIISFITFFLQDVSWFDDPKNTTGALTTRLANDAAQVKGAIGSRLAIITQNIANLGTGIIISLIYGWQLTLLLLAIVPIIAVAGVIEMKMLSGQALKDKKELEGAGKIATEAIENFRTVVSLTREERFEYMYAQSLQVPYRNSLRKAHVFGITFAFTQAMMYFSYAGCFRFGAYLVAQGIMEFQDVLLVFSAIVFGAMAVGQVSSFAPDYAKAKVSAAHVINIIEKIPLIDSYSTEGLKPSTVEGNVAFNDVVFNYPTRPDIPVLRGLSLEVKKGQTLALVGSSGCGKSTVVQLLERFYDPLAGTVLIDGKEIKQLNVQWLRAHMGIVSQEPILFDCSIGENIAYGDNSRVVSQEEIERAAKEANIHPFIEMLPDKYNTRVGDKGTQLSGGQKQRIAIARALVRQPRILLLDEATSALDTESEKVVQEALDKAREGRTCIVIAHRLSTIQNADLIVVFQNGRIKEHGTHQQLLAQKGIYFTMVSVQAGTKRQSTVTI
Method: Taxol (10 μM) was used as a positive p-glycoprotein substrate.

[5] = tested on: Hsp90 client protein Her-2 in Skbr3 breast cancer cells; test: Degradation of Her-2, Western blot in Skbr3 cells; type: cell-based
Method: After incubation, the cells were harvested, lysed, and equal amounts of the protein lysates loaded into SDS wells. After electrophoresis, the gel was probed with Her-2 and actin (control) antibodies.

[6] = tested on: MCF-7 (estrogen receptor positive breast cancer cells); test: Anti-proliferation activity against MCF-7 cells (MTS/PMS); type: cell-based; details: up to 100 μM
Outline: as §3

[7] = tested on: Hsp90, androgen receptor and AKT in LNCaP prostate cancer cells; test: Western blot of Hsp90 and client proteins (AR, AKT) in LNCaP cells; type: cell-based; details: 24 hours
Method: as §1, §2

CO[C@@H]1[C@@H](O)[C@@H](O)[C@H](Oc2ccc3cc(NC(C)=O)c(=O)oc3c2)OC1(C)C [KU-1/A4, N-(7-((2R,3R,4S,5R)-3,4-dihydroxy-5-methoxy-6,6-dimethyl-tetrahydro-2H-pyran-2-yloxy)-2-oxo-2H-chromen-3-yl)acetamide]
time until abluminal chamber concentration sufficed for full neuroprotective effects ([1]; 10 μM in donor chamber): ≤ 15 min
concentration in the receiving chamber ([1]; 10 μM in donor chamber, 90 minutes): 1200 nM
transport across BMECs ([1]; 10 μM in donor chamber, up to 90 minutes): time-dependent linear transport
receiving chamber concentration relative to concentration for 50% neuroprotection ([1]; 90 minutes): 200 fold
androgen receptor levels [2]: drastically reduced levels of the androgen receptor at lower concentrations
anti-proliferative effects SkBr3 [3]: no anti-proliferative effects
P-gp substrate [4]: not a substrate for P-gp
rhodamine 123 uptake ([4]; rhodamine 123 5 μM, Taxol 10 μM, KU-1/A4 up to 50 μM): no effect on uptake
IC50 (concentration producing 50% degradation of Her-2) ([5]; 24 hours, normalized against actin): low micromolar range
concentrations between which a rapid decrease in Her-2 was observed ([5]; tested at 100 nM, 1 μM and 10 μM): between 100 nM and 1 μM
anti-proliferative effects MCF-7 [6]: no anti-proliferative effects
concentration at which degradation of client proteins AR and AKT occurs [7]: 1 µM
lowest concentration inducing Hsp90 [7]: 10 nM
